Results taken from ChEMBL document CHEMBL5291721, “A preclinical secondary pharmacology resource illuminates target-adverse drug reaction associations of marketed drugs” (Nat Commun, 2023).

Tests used:
[1] = molecular target: T1, Alpha-1A adrenergic receptor (Homo sapiens, UniProt P35348); type: functional, cell-based
T1 sequence (P35348 whole entry): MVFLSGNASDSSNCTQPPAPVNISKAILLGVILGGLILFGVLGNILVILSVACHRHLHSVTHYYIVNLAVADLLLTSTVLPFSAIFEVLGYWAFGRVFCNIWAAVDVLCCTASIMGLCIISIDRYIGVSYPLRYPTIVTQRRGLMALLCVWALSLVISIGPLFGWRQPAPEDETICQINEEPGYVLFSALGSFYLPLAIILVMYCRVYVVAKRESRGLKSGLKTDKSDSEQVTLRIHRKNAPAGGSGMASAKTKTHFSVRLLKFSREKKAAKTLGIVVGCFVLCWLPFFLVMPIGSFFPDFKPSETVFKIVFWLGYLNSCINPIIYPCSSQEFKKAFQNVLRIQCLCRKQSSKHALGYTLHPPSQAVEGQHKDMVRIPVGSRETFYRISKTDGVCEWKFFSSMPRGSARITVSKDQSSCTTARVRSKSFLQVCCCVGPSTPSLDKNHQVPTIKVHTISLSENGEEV

Histamine H3 receptor = Histamine H3 receptor (Homo sapiens, UniProt Q9Y5N1)
Chain of Histamine H3 receptor (Q9Y5N1 whole entry): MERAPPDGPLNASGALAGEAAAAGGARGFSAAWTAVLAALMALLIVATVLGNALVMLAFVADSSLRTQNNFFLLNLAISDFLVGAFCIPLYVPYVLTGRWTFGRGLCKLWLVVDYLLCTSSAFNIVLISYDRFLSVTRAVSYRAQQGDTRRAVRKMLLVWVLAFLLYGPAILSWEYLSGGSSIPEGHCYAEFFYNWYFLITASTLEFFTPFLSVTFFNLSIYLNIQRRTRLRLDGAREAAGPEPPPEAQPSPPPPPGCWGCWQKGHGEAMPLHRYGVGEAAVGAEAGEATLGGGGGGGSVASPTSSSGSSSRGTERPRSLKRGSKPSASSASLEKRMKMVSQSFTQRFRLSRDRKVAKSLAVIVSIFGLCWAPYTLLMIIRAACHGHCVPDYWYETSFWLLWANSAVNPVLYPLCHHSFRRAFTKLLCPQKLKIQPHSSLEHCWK

[2] = molecular target: Sodium-dependent noradrenaline transporter (Homo sapiens, UniProt P23975)
Chain of Sodium-dependent noradrenaline transporter (P23975 whole entry): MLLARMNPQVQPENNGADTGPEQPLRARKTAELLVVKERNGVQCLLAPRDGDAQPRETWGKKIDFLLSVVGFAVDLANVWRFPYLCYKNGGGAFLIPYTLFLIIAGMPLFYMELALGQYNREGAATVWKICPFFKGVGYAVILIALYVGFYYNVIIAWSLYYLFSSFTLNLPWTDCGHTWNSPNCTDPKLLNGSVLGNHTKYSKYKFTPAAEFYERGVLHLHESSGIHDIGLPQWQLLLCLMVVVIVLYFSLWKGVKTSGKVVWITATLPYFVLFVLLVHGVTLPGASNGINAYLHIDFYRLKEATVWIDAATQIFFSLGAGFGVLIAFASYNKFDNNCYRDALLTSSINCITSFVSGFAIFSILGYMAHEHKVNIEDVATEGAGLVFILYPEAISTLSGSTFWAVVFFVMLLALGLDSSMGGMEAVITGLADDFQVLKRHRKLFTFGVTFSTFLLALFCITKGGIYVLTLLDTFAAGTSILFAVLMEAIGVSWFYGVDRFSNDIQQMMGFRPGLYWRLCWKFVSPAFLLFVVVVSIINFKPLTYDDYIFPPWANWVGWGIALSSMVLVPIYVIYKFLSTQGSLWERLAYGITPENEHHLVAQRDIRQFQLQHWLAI

Thromboxane A2 receptor = molecular target: T2, Thromboxane A2 receptor (Homo sapiens, UniProt P21731); type: functional, cell-based
T2 sequence (P21731 whole entry): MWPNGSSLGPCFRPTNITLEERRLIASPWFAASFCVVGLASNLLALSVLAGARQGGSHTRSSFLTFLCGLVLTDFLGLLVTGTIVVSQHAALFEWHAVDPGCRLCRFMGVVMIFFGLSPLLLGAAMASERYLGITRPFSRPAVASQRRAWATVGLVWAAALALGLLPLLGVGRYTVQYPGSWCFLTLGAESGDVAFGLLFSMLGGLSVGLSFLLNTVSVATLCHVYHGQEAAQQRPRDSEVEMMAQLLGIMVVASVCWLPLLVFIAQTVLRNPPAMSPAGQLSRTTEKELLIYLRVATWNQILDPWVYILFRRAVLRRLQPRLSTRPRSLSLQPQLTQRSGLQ

Histamine H2 receptor = Histamine H2 receptor (Homo sapiens, UniProt P25021); type: functional, cell-based
Chain of Histamine H2 receptor (P25021 whole entry): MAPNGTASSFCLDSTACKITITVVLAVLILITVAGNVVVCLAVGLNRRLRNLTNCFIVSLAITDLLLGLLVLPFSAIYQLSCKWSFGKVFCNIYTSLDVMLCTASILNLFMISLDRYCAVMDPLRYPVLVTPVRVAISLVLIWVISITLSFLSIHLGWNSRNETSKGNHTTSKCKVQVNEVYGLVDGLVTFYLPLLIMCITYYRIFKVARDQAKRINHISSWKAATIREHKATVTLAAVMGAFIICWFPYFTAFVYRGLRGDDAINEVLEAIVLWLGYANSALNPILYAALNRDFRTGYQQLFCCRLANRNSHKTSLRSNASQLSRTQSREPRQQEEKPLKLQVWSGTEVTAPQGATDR

[3] = molecular target: T3, Alpha-2B adrenergic receptor (Homo sapiens, UniProt P18089)
T3 sequence (P18089 whole entry): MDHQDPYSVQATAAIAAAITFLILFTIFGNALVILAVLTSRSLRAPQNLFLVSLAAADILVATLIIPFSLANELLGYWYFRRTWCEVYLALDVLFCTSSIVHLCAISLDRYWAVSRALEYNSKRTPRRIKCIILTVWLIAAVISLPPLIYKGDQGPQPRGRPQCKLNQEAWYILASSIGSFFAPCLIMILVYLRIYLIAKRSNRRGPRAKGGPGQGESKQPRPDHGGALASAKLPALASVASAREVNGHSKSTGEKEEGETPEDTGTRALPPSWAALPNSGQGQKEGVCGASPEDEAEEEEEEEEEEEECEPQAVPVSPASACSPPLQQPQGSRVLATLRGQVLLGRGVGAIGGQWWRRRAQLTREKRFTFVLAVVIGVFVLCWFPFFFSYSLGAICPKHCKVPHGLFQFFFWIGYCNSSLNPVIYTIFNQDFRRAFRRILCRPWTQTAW

Vasopressin V1a receptor = Vasopressin V1a receptor (Homo sapiens, UniProt P37288)
Chain of Vasopressin V1a receptor (P37288 whole entry): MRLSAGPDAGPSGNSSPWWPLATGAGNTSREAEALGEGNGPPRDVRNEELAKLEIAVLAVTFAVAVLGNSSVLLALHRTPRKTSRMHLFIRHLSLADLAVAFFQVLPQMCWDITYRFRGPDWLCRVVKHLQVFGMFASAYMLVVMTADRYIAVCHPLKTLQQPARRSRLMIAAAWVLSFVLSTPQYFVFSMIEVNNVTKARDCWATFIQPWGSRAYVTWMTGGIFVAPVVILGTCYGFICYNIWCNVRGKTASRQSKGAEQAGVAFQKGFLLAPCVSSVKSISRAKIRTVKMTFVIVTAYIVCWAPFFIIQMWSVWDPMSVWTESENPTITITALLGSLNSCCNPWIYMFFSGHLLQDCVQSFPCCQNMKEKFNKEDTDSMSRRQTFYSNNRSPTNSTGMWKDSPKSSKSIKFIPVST

[4] = molecular target: T4, Gastrin/cholecystokinin type B receptor (Homo sapiens, UniProt P32239)
T4 sequence (P32239 whole entry): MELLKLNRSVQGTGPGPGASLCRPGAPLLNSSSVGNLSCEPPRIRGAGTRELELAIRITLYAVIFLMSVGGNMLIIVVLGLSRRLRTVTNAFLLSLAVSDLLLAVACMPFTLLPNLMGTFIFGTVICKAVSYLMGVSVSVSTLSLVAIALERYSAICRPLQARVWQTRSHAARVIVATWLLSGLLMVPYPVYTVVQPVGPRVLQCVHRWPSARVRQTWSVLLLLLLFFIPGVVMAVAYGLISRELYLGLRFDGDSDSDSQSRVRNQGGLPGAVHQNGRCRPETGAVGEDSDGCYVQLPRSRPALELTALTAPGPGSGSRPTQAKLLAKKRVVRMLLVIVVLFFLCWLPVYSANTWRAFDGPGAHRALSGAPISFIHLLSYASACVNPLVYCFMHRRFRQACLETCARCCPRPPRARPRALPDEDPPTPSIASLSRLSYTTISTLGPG

Endothelin-1 receptor = molecular target: T5, Endothelin-1 receptor (Homo sapiens, UniProt P25101)
T5 sequence (P25101 whole entry): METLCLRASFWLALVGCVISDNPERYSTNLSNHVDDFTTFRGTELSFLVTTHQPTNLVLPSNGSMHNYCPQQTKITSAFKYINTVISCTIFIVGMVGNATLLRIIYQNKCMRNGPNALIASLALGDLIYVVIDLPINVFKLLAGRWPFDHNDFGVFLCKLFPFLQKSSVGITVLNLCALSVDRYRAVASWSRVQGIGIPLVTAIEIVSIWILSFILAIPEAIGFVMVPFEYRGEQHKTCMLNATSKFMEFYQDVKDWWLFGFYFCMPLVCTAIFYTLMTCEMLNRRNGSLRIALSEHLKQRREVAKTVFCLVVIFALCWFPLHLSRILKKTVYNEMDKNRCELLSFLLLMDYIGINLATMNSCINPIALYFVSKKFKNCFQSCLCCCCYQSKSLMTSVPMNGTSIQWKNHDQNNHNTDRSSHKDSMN

[5] = molecular target: 5-hydroxytryptamine receptor 2A (Homo sapiens, UniProt P28223); type: functional, cell-based
Chain of 5-hydroxytryptamine receptor 2A (P28223 whole entry): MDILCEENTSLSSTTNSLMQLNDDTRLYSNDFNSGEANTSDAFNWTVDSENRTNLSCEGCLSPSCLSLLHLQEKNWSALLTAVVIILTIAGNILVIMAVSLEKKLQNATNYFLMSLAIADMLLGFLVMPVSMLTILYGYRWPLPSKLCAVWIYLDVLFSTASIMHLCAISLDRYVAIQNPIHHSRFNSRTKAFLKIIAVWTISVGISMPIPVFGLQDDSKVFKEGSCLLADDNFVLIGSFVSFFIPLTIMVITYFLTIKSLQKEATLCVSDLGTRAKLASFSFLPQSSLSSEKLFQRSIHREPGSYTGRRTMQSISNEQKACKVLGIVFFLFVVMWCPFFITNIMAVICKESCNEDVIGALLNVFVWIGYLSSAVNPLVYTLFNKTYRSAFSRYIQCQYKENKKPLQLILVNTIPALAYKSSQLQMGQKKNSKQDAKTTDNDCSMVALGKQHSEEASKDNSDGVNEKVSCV
Note: assay procedure not described here.

Row | Compound | AC50 [1] | AC50 (Histamine H3 receptor) | AC50 [2] | AC50 (Thromboxane A2 receptor) | AC50 (Histamine H2 receptor) | AC50 [3] | AC50 (Vasopressin V1a receptor) | AC50 [4] | AC50 (Endothelin-1 receptor) | AC50 [5]
1 | Sc1ncnc2nc[nH]c12 [MERCAPTOPURINE ANHYDROUS] | > 30 µM | > 30 µM | > 30 µM | > 30 µM |  |  |  |  |  | 
2 | O=C1c2ccccc2C(=O)C1C(=O)C(c1ccccc1)c1ccccc1 [DIPHENADIONE] | 4.95 µM | > 30 µM | > 30 µM | 1.84 µM |  |  |  |  |  | 
3 | CCO/N=C(\C(=O)N[C@@H]1C(=O)N2C(C(=O)[O-])=C(Sc3nc(-c4cc[n+](C)cc4)cs3)CS[C@H]12)c1nsc(N)n1 [CEFTAROLINE] | > 30 µM | > 30 µM | > 30 µM | > 30 µM |  |  |  |  |  | 
4 | CN(C)CCCN1c2ccccc2CCc2ccc(Cl)cc21 [CLOMIPRAMINE] | > 30 µM | > 30 µM |  |  | > 30 µM |  |  |  |  | 
5 | Cc1c(-c2ccccc2)oc2c(C(=O)OCCN3CCCCC3)cccc2c1=O [FLAVOXATE] | > 30 µM | 24.6 µM | 11.3 µM | > 30 µM |  |  |  |  |  | 
6 | O=C1CC[C@@]2(O)[C@H]3Cc4ccc(O)c5c4[C@@]2(CCN3CC2CC2)[C@H]1O5 [NALTREXONE] | > 30 µM | > 30 µM | > 30 µM | > 30 µM |  |  |  |  |  | 
7 | CCC(=O)c1c(O)cc(O)cc1O [FLOPROPIONE] | > 30 µM | > 30 µM | > 30 µM | > 30 µM |  |  |  |  |  | 
8 | CC(=O)OC[C@H]1O[C@@H](n2ccc(=O)[nH]c2=O)[C@H](OC(C)=O)[C@@H]1OC(C)=O [URIDINE TRIACETATE] | > 30 µM | > 30 µM | > 30 µM | > 30 µM |  |  |  |  |  | 
9 | CC(N/C(=N\C#N)Nc1ccncc1)C(C)(C)C (configuration not stated) [PINACIDIL ANHYDROUS] | > 30 µM | > 10 µM | > 30 µM | > 30 µM |  |  |  |  |  | 
10 | O=C1[C@H](CC[C@H](O)c2ccc(F)cc2)[C@@H](c2ccc(O)cc2)N1c1ccc(F)cc1 [EZETIMIBE] | 9.94 µM | > 30 µM | 24 µM | 7.68 µM |  |  |  |  |  | 
11 | Cc1ccc(O)c2ncccc12 [TILIQUINOL] | > 30 µM | > 30 µM | 6.22 µM | > 30 µM |  |  |  |  |  | 
12 | O=C1c2c(O)c(=O)ccn2N([C@@H]2c3ccccc3SCc3c2ccc(F)c3F)[C@@H]2COCCN12 [BALOXAVIR] | > 30 µM | > 30 µM | > 30 µM | > 30 µM |  |  |  |  |  | 
13 | CN1CCCC(CN2c3ccccc3Sc3ccccc32)C1 (configuration not stated) [MEPAZINE] | > 30 µM | 22.3 µM | 2.38 µM | > 10 µM |  |  |  |  |  | 
14 | OC[C@@H](O)[C@@H](O)[C@H](O)[C@H](O)CO [MANNITOL] | > 30 µM | > 30 µM | > 30 µM | > 30 µM |  |  |  |  |  | 
15 | C#C[C@]1(O)CC[C@H]2[C@@H]3CCC4=CC(=O)CC[C@@H]4[C@H]3CC[C@@]21CC [LEVONORGESTREL] | > 30 µM | > 30 µM | > 30 µM | > 30 µM |  |  |  |  |  | 
16 | CCOC(=O)c1ccc(O)cc1 [ETHYLPARABEN] | > 30 µM | > 30 µM | > 30 µM | > 30 µM |  |  |  |  |  | 
17 | C[N+](C)(C)CCCCCCCCCC[N+](C)(C)C [DECAMETHONIUM] | > 30 µM | > 30 µM | > 30 µM | > 30 µM |  |  |  |  |  | 
18 | CC(C)OC(=O)[C@H](C)N[P@](=O)(OC[C@H]1O[C@@H](n2ccc(=O)[nH]c2=O)[C@](C)(F)[C@@H]1O)Oc1ccccc1 [SOFOSBUVIR] | > 30 µM | > 30 µM | > 30 µM | > 30 µM |  |  |  |  |  | 
19 | C[N+]1(C)[C@@H]2C[C@@H](OC(=O)[C@H](CO)c3ccccc3)C[C@H]1[C@@H]1O[C@@H]12 [METHSCOPOLAMINE] | > 30 µM | > 30 µM | > 30 µM | > 30 µM |  |  |  |  |  | 
20 | O=C(COc1ccc(Cl)cc1)N1CCN(Cc2ccc3c(c2)OCO3)CC1 [FIPEXIDE] | > 30 µM | > 30 µM | 20.4 µM | 11.3 µM |  |  |  |  |  | 
21 | COC(=O)N[C@H](C(=O)N1CCC[C@H]1c1nc(-c2ccc(-c3ccc(-c4c[nH]c([C@@H]5CCCN5C(=O)[C@@H](NC(=O)OC)C(C)C)n4)cc3)cc2)c[nH]1)C(C)C |  |  |  |  | > 30 µM | > 30 µM | > 30 µM | > 30 µM | > 30 µM | > 30 µM
22 | CC(=O)Oc1c(C)cc(OCC(O)CNC(C)C)c(C)c1C (configuration not stated) [METIPRANOLOL] | > 30 µM | > 30 µM | > 30 µM | > 30 µM |  |  |  |  |  | 
23 | CC1(C)O[C@@H]2C[C@H]3[C@@H]4C[C@H](F)C5=CC(=O)CC[C@]5(C)[C@H]4[C@@H](O)C[C@]3(C)[C@]2(C(=O)CO)O1 [FLURANDRENOLIDE] | > 30 µM | > 30 µM | > 30 µM | > 30 µM |  |  |  |  |  | 
24 | NC(=O)c1ncn([C@@H]2O[C@H](CO)[C@@H](O)[C@H]2O)c1O [MIZORIBINE] |  |  |  |  | > 30 µM | > 30 µM | > 30 µM | > 30 µM | > 30 µM | > 30 µM
25 | COc1ccc2c(c1)C(=O)N(CCc1ccc(S(=O)(=O)NC(=O)NC3CCCCC3)cc1)C(=O)C2(C)C [GLIQUIDONE] |  |  |  |  | > 30 µM | > 30 µM | > 30 µM | > 10 µM | > 30 µM | > 30 µM
26 | CN(C)C(=O)Oc1ccc[n+](C)c1 [PYRIDOSTIGMINE] | > 30 µM | > 30 µM | > 30 µM | > 30 µM |  |  |  |  |  | 
27 | C(=N\NC1=NCCN1)/c1c2ccccc2c(/C=N/NC2=NCCN2)c2ccccc12 [BISANTRENE] | > 30 µM | > 30 µM | 7.13 µM | > 30 µM |  |  |  |  |  | 
28 | COc1cc2c(cc1OC)C(=O)C(CC1CCN(Cc3ccccc3)CC1)C2 (configuration not stated) [DONEPEZIL] |  | 5.2 µM | 9.13 µM | > 30 µM | > 10 µM | > 10 µM | > 30 µM | > 30 µM | > 30 µM | > 30 µM
29 | N[C@@H](C(=O)N[C@@H]1C(=O)N2C(C(=O)O)=C(Cl)CS[C@H]12)c1ccccc1 [CEFACLOR ANHYDROUS] |  |  |  |  | > 30 µM | > 30 µM | > 30 µM | > 30 µM | > 30 µM | > 30 µM
30 | CC(O)CO (configuration not stated) [PROPYLENE GLYCOL] | > 30 µM | > 30 µM | > 30 µM | > 30 µM |  |  |  |  |  | 
